Measurements as given in ChEMBL document CHEMBL1137009, “Inhibition of sphingosine-1-phosphate lyase for the treatment of autoimmune disorders” (J Med Chem, 2009).
Activity calls are given as the source filed them. The calls are words filed in the database; no cut-off is given here.

Assays:
[1] = system: Mus musculus; assay: (§1) AUC (0 to infinity) in 129/SvEvBrd x C57BL/6 hybrid mouse at 10 mg/kg, po; assay type: ADME, organism-based, Plasma; set-up: time infinity, dose 10 mg/kg, route oral; details: in vivo
[2] = Half life in 129/SvEvBrd x C57BL/6 hybrid mouse; assay type: ADME, organism-based; details: in vivo
[3] = system: Mus musculus; assay: Induction of lymphopenia in 129/SvEvBrd x C57BL/6 hybrid mouse assessed as change in circulating lymphocyte level at 100 mg/kg, po administered as single dose after 18 hrs by complete blood count analysis relative to control; assay type: functional
[4] = Permeability across human Caco-2 cell membrane at 20 uM; assay type: ADME, cell-based; details: read-out: permeability
[5] = system: Mus musculus; assay: (§2) Oral bioavailability in 129/SvEvBrd x C57BL/6 hybrid mouse at 1 mg/kg, iv and 10 mg/kg, po; assay type: ADME, organism-based; details: in vivo
[6] = system: Mus musculus; assay: Induction of lymphopenia in 129/SvEvBrd x C57BL/6 hybrid mouse assessed as change in circulating lymphocyte level at 30 mg/kg, po administered as single dose after 18 hrs by complete blood count analysis relative to control; assay type: functional
[7] = Bioavailability in 129/SvEvBrd x C57BL/6 hybrid mouse at 10 mg/kg; assay type: ADME, organism-based; details: in vivo
[8] = system: Mus musculus; assay: Induction of lymphopenia in 129/SvEvBrd x C57BL/6 hybrid mouse whole blood assessed as reduction in lymphocyte level at 100 mg/kg, po after 18 hrs by complete blood count analysis; assay type: functional, organism-based; set-up: dose 100 mg/kg
[9] = Protein binding in 129/SvEvBrd x C57BL/6 hybrid mouse plasma at 10 mg/kg; assay type: ADME, organism-based; set-up: dose 10 mg/kg; details: read-out: PPB
[10] = molecular target: T1, Sphingosine-1-phosphate lyase 1 (Mus musculus, UniProt Q8R0X7); assay: Inhibition of sphingosine-1-phosphate lyase in mouse spleen by scintillation counting; assay type: tissue-based
T1 sequence (Q8R0X7 whole entry): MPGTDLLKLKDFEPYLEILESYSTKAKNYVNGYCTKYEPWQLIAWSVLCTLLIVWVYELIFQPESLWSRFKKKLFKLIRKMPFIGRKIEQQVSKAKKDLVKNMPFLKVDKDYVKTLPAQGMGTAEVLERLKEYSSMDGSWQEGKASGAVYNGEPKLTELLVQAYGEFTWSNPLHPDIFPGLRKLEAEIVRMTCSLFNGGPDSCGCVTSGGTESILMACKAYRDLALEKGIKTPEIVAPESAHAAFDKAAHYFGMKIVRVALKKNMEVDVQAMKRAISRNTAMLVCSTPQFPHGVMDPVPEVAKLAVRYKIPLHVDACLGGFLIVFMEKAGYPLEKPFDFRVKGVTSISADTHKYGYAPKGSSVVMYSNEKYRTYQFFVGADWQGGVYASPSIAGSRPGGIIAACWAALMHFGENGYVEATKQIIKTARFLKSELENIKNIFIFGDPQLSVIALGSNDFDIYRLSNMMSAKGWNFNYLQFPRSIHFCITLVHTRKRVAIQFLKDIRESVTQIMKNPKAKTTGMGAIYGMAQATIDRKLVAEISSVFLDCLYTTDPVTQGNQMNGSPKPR

[11] = Cmax in 129/SvEvBrd x C57BL/6 hybrid mouse at 10 mg/kg; assay type: ADME, organism-based; set-up: dose 10 mg/kg; details: in vivo
[12] = system: Mus musculus; assay: Induction of lymphopenia in 129/SvEvBrd x C57BL/6 hybrid mouse whole blood assessed as reduction in lymphocyte level at 100 mg/kg, po after 4 hrs by complete blood count analysis; assay type: functional, organism-based; set-up: dose 100 mg/kg
[13] = AUC in 129/SvEvBrd x C57BL/6 hybrid mouse at 10 mg/kg; assay type: ADME, organism-based; set-up: dose 10 mg/kg; details: plasma
[14] = system: Mus musculus; assay: Induction of lymphopenia in 129/SvEvBrd x C57BL/6 hybrid mouse assessed as reduction in lymphocyte level from peripheral circulation at 10 mg/kg by complete blood count analysis; assay type: functional; set-up: scale not given: the % may be the effect or the level left
[15] = as §1; assay type: ADME, organism-based, Plasma; set-up: time infinity, dose 10 mg/kg, route oral; details: 129/SvEvBrd x C57BL/6 hybrid, plasma
[16] = Clearance in 129/SvEvBrd x C57BL/6 hybrid mouse at 1 mg/kg, iv; assay type: ADME, organism-based; set-up: dose 1 mg/kg, route intravenous; details: in vivo
[17] = as §2; assay type: ADME, organism-based; details: 129/SvEvBrd x C57BL/6 hybrid, in vivo
[18] = system: Mus musculus; assay: Toxicity in 129/SvEvBrd x C57BL/6 hybrid mouse at 100 mg/kg, po; assay type: organism-based; set-up: dose 100 mg/kg, route oral; details: in vivo
[19] = AUC in 129/SvEvBrd x C57BL/6 hybrid mouse at 100 mg/kg, po; assay type: ADME, organism-based; set-up: dose 100 mg/kg, route oral; details: plasma
[20] = system: Mus musculus; assay: Induction of lymphopenia in ip dosed 129/SvEvBrd x C57BL/6 hybrid mouse whole blood assessed as reduction in lymphocyte level by complete blood count analysis after 4 hrs; assay type: functional, organism-based
[21] = system: HepG2; assay: Increase in sphingosine-1-phosphate level in human HepG2 cells relative to control; assay type: functional
[22] = Cmax in 129/SvEvBrd x C57BL/6 hybrid mouse at 100 mg/kg, po; assay type: ADME, organism-based; set-up: dose 100 mg/kg, route oral; details: in vivo
[23] = molecular target: T2, Sphingosine-1-phosphate lyase 1 (Mus musculus) (UniProt Q8R0X7); assay: Inhibition of sphingosine-1-phosphate lyase in mouse spleen assessed as production of [33P]phosphoethanolamine; assay type: tissue-based
T2 sequence (whole entry): T1 sequence (Q8R0X7 whole entry)

[24] = Volume of distribution in 129/SvEvBrd x C57BL/6 hybrid mouse; assay type: ADME, organism-based; details: in vivo
[25] = Cmax in 129/SvEvBrd x C57BL/6 hybrid mouse; assay type: ADME, organism-based; details: in vivo
[26] = system: Mus musculus; assay: Reduction in sphingosine-1-phosphate lyase activity in mouse spleen at 100 mg/kg, po after 18 hrs by radioreceptor binding assay; assay type: functional, organism-based; set-up: dose 100 mg/kg
[27] = system: Mus musculus; assay: Increase in sphingosine-1-phosphate level in mouse spleen at 100 mg/kg, po after 18 hrs by radioreceptor binding assay relative to control; assay type: functional
[28] = Tmax in 129/SvEvBrd x C57BL/6 hybrid mouse; assay type: ADME, organism-based; details: in vivo

Structure (SMILES) | half-life [2] [h] | Activity [3] [%] | Papp at 20 µM [4] [×10⁻⁶ cm/s] | Activity [6] [%] | AUC(0-inf) [15] [µM·h] | clearance [16] [mL/min/kg] | bioavailability [17] [%] | other results
CC(O)c1nc([C@@H](O)[C@H](O)[C@H](O)CO)c[nH]1 (stereo partly specified) | 4.4 | -15 | 4.1 |  |  |  |  | AUC [1]: 44.5 µM·h; F [5]: 22%
CN(C)C(=O)c1nc([C@@H](O)[C@H](O)[C@H](O)CO)c[nH]1 | 4 |  | 9.9 | -11 |  |  |  | AUC [1]: 6.7 µM·h; F [5]: 5%
Nc1nc(N2CCCCC2)nc2c1c(=O)c(C(=O)NCc1ccc(-n3ccnc3)cc1)cn2CC1CCCO1 (stereo unspecified) |  |  |  |  |  |  |  | bioavailability [7]: 100%; Activity [8]: Non-toxic; fraction unbound [9]: < 0.01; IC50 [10]: 2100 nM; Cmax [11]: 451 µM; Activity [12]: Non-toxic; AUC [13]: 1870 µM·h
CC(=O)c1ncc([C@@H](O)[C@H](O)[C@H](O)CO)s1 | 0.9 | 25 | 13.9 |  |  |  |  | AUC [1]: 2.7 µM·h; F [5]: 65%
CCCCCCCCc1ccc(CCC(N)(CO)CO)cc1 [FINGOLIMOD] |  |  |  |  |  |  |  | Activity [14]: 90%
CC(=O)N/N=C(\C)c1nc([C@@H](O)[C@H](O)[C@H](O)CO)c[nH]1 | 2.6 |  | 9 | -41 | 3.6 | 8.9 | 5 | 
CC(F)(F)c1nc([C@@H](O)[C@H](O)[C@H](O)CO)c[nH]1 | 1 |  | 11.1 | -58 | 4.7 |  |  | Activity [18]: Toxic
OC[C@@H](O)[C@@H](O)[C@H](O)c1c[nH]c(C(F)(F)C(F)(F)F)n1 | 1.7 |  |  | -11 |  |  |  | AUC [1]: 10 µM·h; F [5]: 31%
O=C(c1ccccc1)c1nc([C@@H](O)[C@H](O)[C@H](O)CO)c[nH]1 | 4 |  |  | -17 | 6 | 13.5 | 14 | 
Cn1cnc(-c2nc([C@@H](O)[C@H](O)[C@H](O)CO)c[nH]2)c1 | 1.6 | -5 | 26.2 |  | 2.6 | 9.1 | 3 | 
CCCCCCCCCCCC/C=C/C[C@@H](O)[C@H](CO)NCc1c(CO)cnc(C)c1O |  |  |  |  |  |  |  | AUC [19]: < 1 µM·h; Activity [20]: Non-toxic; Activity [21]: 275%; Cmax [22]: < 1 µM; Activity [23]: inactive
CC(=O)c1nc([C@@H](O)[C@H](O)[C@H](O)CO)c[nH]1 | 4.5 | -41 | 11 | -25 | 35.8 | 2.9 | 14 | Vd [24]: 0.067 L/kg; Cmax [25]: 24.9 µM; Activity [26]: Active; fold change (FC) [27]: 22; Tmax [28]: 0.5 h
OC[C@@H](O)[C@@H](O)[C@H](O)c1c[nH]c(-c2ncon2)n1 | 0.7 | -16 | 14.1 |  | 3.2 | 11.3 | 5 | 
CC(=O)c1nc([C@H](O)[C@@H](O)[C@@H](O)CO)c[nH]1 | 6 | 0 | 13.1 |  | 18 | 6.7 | 17 | 
OC[C@@H](O)[C@@H](O)[C@H](O)c1c[nH]c(-c2ncn(Cc3ccccc3)n2)n1 | 2.4 | -41 | 5.1 |  | 1.7 | 16.4 | 6 | 
CCc1[nH]c(C(C)=O)nc1[C@@H](O)[C@H](O)[C@H](O)CO | 2.8 | 8 | 7.93 |  | 6.4 | 17.3 | 17.1 | 
OC[C@@H](O)[C@@H](O)[C@H](O)c1c[nH]c(-c2cnccn2)n1 | 1.9 | -6 | 19.8 |  | 4.7 | 13.4 | 10 | 
